The results in this text go back to US10968225B2, “Compounds and compositions for the treatment of cystic fibrosis” (Fondazione Istituto Italiano Di Tecnologia, priority 2017, dated 2021).

By EC50 is commonly meant the concentration at which the effect is half-maximal.

Counter-ions that a name gives are not always drawn. Bounds are passed on as bounds.

T1 sequence (P13569 with tags, fused parts or gaps DEL508-508): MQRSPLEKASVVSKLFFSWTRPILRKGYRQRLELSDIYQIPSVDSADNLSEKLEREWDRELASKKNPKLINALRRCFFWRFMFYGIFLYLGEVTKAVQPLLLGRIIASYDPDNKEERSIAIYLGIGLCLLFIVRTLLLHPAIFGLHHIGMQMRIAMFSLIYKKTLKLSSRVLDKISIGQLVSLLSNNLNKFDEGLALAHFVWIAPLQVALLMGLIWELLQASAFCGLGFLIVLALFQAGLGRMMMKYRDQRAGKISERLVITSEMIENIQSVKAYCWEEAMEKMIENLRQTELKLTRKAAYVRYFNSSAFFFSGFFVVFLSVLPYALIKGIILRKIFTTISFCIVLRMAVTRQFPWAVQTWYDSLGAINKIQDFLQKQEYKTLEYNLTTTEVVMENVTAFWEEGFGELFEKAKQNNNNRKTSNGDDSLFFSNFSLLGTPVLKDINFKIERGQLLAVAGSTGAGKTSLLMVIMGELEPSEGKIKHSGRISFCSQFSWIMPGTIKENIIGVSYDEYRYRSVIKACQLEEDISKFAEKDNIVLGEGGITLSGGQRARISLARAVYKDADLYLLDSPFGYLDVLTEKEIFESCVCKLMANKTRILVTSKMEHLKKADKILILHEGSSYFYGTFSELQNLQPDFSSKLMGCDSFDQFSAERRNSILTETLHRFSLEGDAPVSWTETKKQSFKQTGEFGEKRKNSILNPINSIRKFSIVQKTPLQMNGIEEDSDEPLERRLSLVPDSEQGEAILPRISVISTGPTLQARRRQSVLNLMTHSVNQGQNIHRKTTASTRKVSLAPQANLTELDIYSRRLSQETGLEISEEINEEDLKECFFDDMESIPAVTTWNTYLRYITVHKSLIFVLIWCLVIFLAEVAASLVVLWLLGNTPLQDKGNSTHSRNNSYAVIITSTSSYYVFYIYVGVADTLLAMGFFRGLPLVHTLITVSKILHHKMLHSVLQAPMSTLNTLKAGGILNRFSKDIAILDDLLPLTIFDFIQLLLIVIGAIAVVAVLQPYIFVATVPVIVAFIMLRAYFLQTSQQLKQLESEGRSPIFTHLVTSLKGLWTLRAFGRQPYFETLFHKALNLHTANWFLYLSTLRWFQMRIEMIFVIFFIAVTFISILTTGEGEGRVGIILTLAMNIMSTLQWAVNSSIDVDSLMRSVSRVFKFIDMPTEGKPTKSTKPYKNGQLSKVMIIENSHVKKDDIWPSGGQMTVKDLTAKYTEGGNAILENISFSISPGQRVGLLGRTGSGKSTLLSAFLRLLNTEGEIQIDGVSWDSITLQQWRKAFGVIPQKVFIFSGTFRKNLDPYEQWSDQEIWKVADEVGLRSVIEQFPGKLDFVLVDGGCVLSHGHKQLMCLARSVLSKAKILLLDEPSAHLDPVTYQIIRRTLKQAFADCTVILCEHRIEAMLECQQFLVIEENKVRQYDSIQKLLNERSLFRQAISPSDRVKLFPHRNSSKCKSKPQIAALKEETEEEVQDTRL

The experiment concerns the target T1, mutant CFTR (Homo sapiens, UniProt P13569, DEL508-508).
T1 construct: expressed in transfected cells
Briefly: Fluorescence (HS-YFP) assay for CFTR activity, corrector assay. In kind it is cell-based. The conditions noted are these: CFBE41o- and FRT cells with stable expression of mutant CFTR, read-out: activity (EC50).
As to `CN(C(=O)c1cccc(-n2nc(C(F)(F)F)c3c2CCN(S(=O)(=O)c2ccccc2C(=O)O)C3)c1)c1ccc2c(c1)OCO2` [Compound 062, 2-[[1-[3-[1,3-Benzodioxol-5-yl(methyl)carbamoyl]phenyl]-3-(trifluoromethyl)-6,7-dihydro-4H-pyrazolo[4,3-c]pyridin-5-yl]sulfonyl]benzoic acid], the EC50 was over 2000 nM.
Under `CN(C(=O)c1cccc(-n2nc(C(F)(F)F)c3c2CCN(S(=O)(=O)c2ccc(C#N)cc2)C3)c1)c1ccc2c(c1)OCO2` [Compound 063, N-(1,3-Benzodioxol-5-yl)-3-[5-(4-cyanophenyl)sulfonyl-3-(trifluoromethyl)-6,7-dihydro-4H-pyrazolo[4,3-c]pyridin-1-yl]-N-methyl-benzamide] stands under 1000 nM; under `Cc1nc(S(=O)(=O)N2CCc3c(c(C(F)(F)F)nn3-c3cccc(C(=O)N(C)c4ccc5c(c4)OCO5)c3)C2)cn1C` [Compound 064, N-(1,3-Benzodioxol-5-yl)-3-[5-(1,2-dimethylimidazol-4-yl)sulfonyl-3-(trifluoromethyl)-6,7-dihydro-4H-pyrazolo[4,3-c]pyridin-1-yl]-N-methyl-benzamide], under 1000 nM.
Under `CN(c1ccc2c(c1)OCO2)S(=O)(=O)c1cccc(-n2nc(C(F)(F)F)c3c2CCN(C(=O)OC(C)(C)C)C3)c1` [Compound 065, tert-Butyl 1-[3-[1,3-benzodioxol-5-yl(methyl)sulfamoyl]phenyl]-3-(trifluoromethyl)-6,7-dihydro-4H-pyrazolo[4,3-c]pyridine-5-carboxylate] stands over 2000 nM.
Under `CN(c1ccc2c(c1)OCO2)S(=O)(=O)c1cccc(-n2nc(C(F)(F)F)c3c2CCNC3)c1` [Compound 066, N-(1,3-Benzodioxol-5-yl)-N-methyl-3-[3-(trifluoromethyl)-4,5,6,7-tetrahydropyrazolo[4,3-c]pyridin-1-yl] benzenesulfonamide hydrochloride] stands under 1000 nM.
With `Cc1noc(C)c1S(=O)(=O)N1CCc2c(c(C(F)(F)F)nn2-c2cccc(C(=O)N(C)c3ccc4c(c3)OCO4)c2)C1` [Compound 067, N-(1,3-benzodioxol-5-yl)-3-[5-(3,5-dimethylisoxazol-4-yl)sulfonyl-3-(trifluoromethyl)-6,7-dihydro-4H-pyrazolo[4,3-c]pyridin-1-yl]-N-methyl-benzamide], the EC50 was under 1000 nM.
Under `COCCS(=O)(=O)N1CCc2c(c(C(F)(F)F)nn2-c2cccc(C(=O)N(C)c3ccc4c(c3)OCO4)c2)C1` [Compound 068, N-(1,3-benzodioxol-5-yl)-3-[5-(2-methoxyethylsulfonyl)-3-(trifluoromethyl)-6,7-dihydro-4H-pyrazolo[4,3-c]pyridin-1-yl]-N-methyl-benzamide] stands under 1000 nM; under `Cc1n[nH]c(C)c1S(=O)(=O)N1CCc2c(c(C(F)(F)F)nn2-c2cccc(C(=O)N(C)c3ccc4c(c3)OCO4)c2)C1` [Compound 069, N-(1,3-Benzodioxol-5-yl)-3-[5-[(3,5-dimethyl-4H-pyrazol-4-yl)sulfonyl]-3-(trifluoromethyl)-6,7-dihydro-4H-pyrazolo[4,3-c]pyridin-1-yl]-N-methyl-benzamide], under 1000 nM.
Under `COC(=O)c1ccc(S(=O)(=O)N2C3CCC2c2c(C(F)(F)F)nn(-c4cccc(C(=O)N(C)c5ccc6c(c5)OCO6)c4)c2C3)cc1` (stereo not shown) [Compound 070, Methyl 4-((1-(3-(benzo[d][1,3]dioxol-5-yl(methyl)carbamoyl)phenyl)-3-(trifluoromethyl)-1,4,5,6,7,8-hexahydro-4,7-epiminocyclohepta[c]pyrazol-9-yl)sulfonyl)benzoate] stands under 1000 nM.
Under `CN1CCc2c(c(C(F)(F)F)nn2-c2cccc(S(=O)(=O)N(C)c3ccc4c(c3)OCO4)c2)C1` [Compound 071, N-(1,3-Benzodioxol-5-yl)-N-methyl-3-[5-methyl-3-(trifluoromethyl)-6,7-dihydro-4H-pyrazolo[4,3-c]pyridin-1-yl]benzenesulfonamide] stands over 2000 nM; under `CN(C(=O)c1cccc(-n2nc(C(F)(F)F)c3c2CN(C(=O)C(C)(C)C)CC3)c1)c1ccc2c(c1)OCO2` [Compound 072, N-(1,3-Benzodioxol-5-yl)-3-[6-(2,2-dimethylpropanoyl)-3-(trifluoromethyl)-5,7-dihydro-4H-pyrazolo[3,4-c]pyridin-1-yl]-N-methyl-benzamide], under 1000 nM; under `COC(=O)c1ccc(S(=O)(=O)N2CCc3c(C(F)(F)F)nn(-c4cccc(C(=O)N(C)c5ccc6c(c5)OCO6)c4)c3C2)cc1` [Compound 075, Methyl 4-[[1-[3-[1,3-benzodioxol-5-yl(methyl)carbamoyl]phenyl]-3-(trifluoromethyl)-5,7-dihydro-4H-pyrazolo[3,4-c]pyridin-6-yl]sulfonyl]benzoate], under 1000 nM.
For `CN(C(=O)c1cccc(-n2nc(C(F)(F)F)c3c2CN(S(=O)(=O)c2ccc(C(=O)O)cc2)CC3)c1)c1ccc2c(c1)OCO2` [Compound 077, 4-[[1-[3-[1,3-Benzodioxol-5-yl(methyl)carbamoyl]phenyl]-3-(trifluoromethyl)-5,7-dihydro-4H-pyrazolo[3,4-c]pyridin-6-yl]sulfonyl]benzoic acid], the EC50 fell in the range of 1000 to 2000 nM.
Under `Cc1nc2ccc(NC(=O)c3cccc(-n4nc(C(F)(F)F)c5c4CCN(C(=O)C(C)(C)C)C5)c3)cn2n1` [Compound 078, 3-[5-(2,2-Dimethylpropanoyl)-3-(trifluoromethyl)-6,7-dihydro-4Hpyrazolo[4,3-c]pyridin-1-yl]-N-(2-methyl-[1,2,4]triazolo[1,5-a]pyridin-6-yl)benzamide] stands over 2000 nM; under `Cc1n[nH]c2ncc(NC(=O)c3cccc(-n4nc(C(F)(F)F)c5c4CCN(C(=O)C(C)(C)C)C5)c3)cc12` [Compound 079, 3-[5-(2,2-Dimethylpropanoyl)-3-(trifluoromethyl)-6,7-dihydro-4Hpyrazolo[4,3-c]pyridin-1-yl]-N-(3-methyl-1H-pyrazolo[3,4-b]pyridin-5-yl)benzamide], over 2000 nM; under `COc1ccc(NC(=O)c2cccc(-n3nc(C(F)(F)F)c4c3CCN(C(=O)C(C)(C)C)C4)c2)cn1` [Compound 080, 3-[5-(2,2-Dimethylpropanoyl)-3-(trifluoromethyl)-6,7-dihydro-4Hpyrazolo[4,3-c]pyridin-1-yl]-N-(6-methoxy-3-pyridyl)benzamide], over 2000 nM.
Under `COc1ncc(NC(=O)c2cccc(-n3nc(C(F)(F)F)c4c3CCN(C(=O)C(C)(C)C)C4)c2)cn1` [Compound 081, 3-[5-(2,2-Dimethylpropanoyl)-3-(trifluoromethyl)-6,7-dihydro-4H-pyrazolo[4,3-c]pyridin-1-yl]-N-(2-methoxypyrimidin-5-yl)benzamide] stands over 2000 nM.
Take `Cc1nn(CCC(=O)OC(C)(C)C)c(C)c1S(=O)(=O)N1CCc2c(c(C(F)(F)F)nn2-c2cccc(C(=O)N(C)c3ccc4c(c3)OCO4)c2)C1` [Compound 082, tert-Butyl 3-[4-[[1-[3-[1,3-benzodioxol-5-yl(methyl)carbamoyl]phenyl]-3-(trifluoromethyl)-6,7-dihydro-4H-pyrazolo[4,3-c]pyridin-5-yl]sulfonyl]-3,5-dimethyl-pyrazol-1-yl]propanoate]: the half-maximal effective concentration (EC50) is under 1000 nM.
Under `COc1cc(NC(=O)c2cccc(-n3nc(C(F)(F)F)c4c3CCN(C(=O)C(C)(C)C)C4)c2)ccn1` [Compound 083, 3-[5-(2,2-Dimethylpropanoyl)-3-(trifluoromethyl)-6,7-dihydro-4Hpyrazolo[4,3-c]pyridin-1-yl]-N-(2-methoxy-4-pyridyl)benzamide] stands over 2000 nM; under `Cc1cn2cc(NC(=O)c3cccc(-n4nc(C(F)(F)F)c5c4CCN(C(=O)C(C)(C)C)C5)c3)ccc2n1` [Compound 084, 3-[5-(2,2-Dimethylpropanoyl)-3-(trifluoromethyl)-6,7-dihydro-4H-pyrazolo[4,3-c]pyridin-1-yl]-N-(2-methylimidazo [1,2-a]pyridin-6-yl)benzamide], over 2000 nM; under `COc1ccc(N(C)C(=O)c2cccc(-n3nc(C(F)(F)F)c4c3CCN(C(=O)C(C)(C)C)C4)c2)cn1` [Compound 085, 3-[5-(2,2-Dimethylpropanoyl)-3-(trifluoromethyl)-6,7-dihydro-4Hpyrazolo[4,3-c]pyridin-1-yl]-N-(6-methoxy-3-pyridyl)-N-methylbenzamide], under 1000 nM.
As for `Cc1nn(CCC(=O)O)c(C)c1S(=O)(=O)N1CCc2c(c(C(F)(F)F)nn2-c2cccc(C(=O)N(C)c3ccc4c(c3)OCO4)c2)C1` [Compound 086, 3-[4-[[1-[3-[1,3-Benzodioxol-5-yl(methyl)carbamoyl]phenyl]-3-(trifluoromethyl)-6,7-dihydro-4H-pyrazolo[4,3-c]pyridin-5-yl]sulfonyl]-3,5-dimethyl-pyrazol-1-yl] propanoic acid], the EC50 is under 1000 nM.
Take `Cc1[nH]nc(C(=O)O)c1S(=O)(=O)N1CCc2c(c(C(F)(F)F)nn2-c2cccc(C(=O)N(C)c3ccc4c(c3)OCO4)c2)C1` [Compound 089, 4-[[1-[3-[1,3-Benzodioxol-5-yl(methyl)carbamoyl]phenyl]-3-(trifluoromethyl)-6,7-dihydro-4H-pyrazolo[4,3-c]pyridin-5-yl]sulfonyl]-5-methyl-1H-pyrazole-3-carboxylic acid]: the half-maximal effective concentration (EC50) is under 1000 nM.
Under `COc1cc(N(C)C(=O)c2cccc(-n3nc(C(F)(F)F)c4c3CCN(C(=O)C(C)(C)C)C4)c2)ccn1` [Compound 090, 3-[5-(2,2-Dimethylpropanoyl)-3-(trifluoromethyl)-6,7-dihydro-4H-pyrazolo[4,3-c]pyridin-1-yl]-N-(2-methoxy-4-pyridyl)-N-methyl-benzamide] stands under 1000 nM; under `Cc1cn2cc(N(C)C(=O)c3cccc(-n4nc(C(F)(F)F)c5c4CCN(C(=O)C(C)(C)C)C5)c3)ccc2n1` [Compound 091, 3-[5-(2,2-Dimethylpropanoyl)-3-(trifluoromethyl)-6,7-dihydro-4H-pyrazolo[4,3-c]pyridin-1-yl]-N-methyl-N-(2-methylimidazo[1,2-a]pyridin-6-yl)benzamide], 1000 to 2000 nM.
